Values of other authors in patent publication US9060929B2, “Alprostadil for treatment of premature ejaculation” (Nexmed Holdings, Inc., priority 2003, dated 2015).
Read-outs that look alike come from different tables or passages of the source.

How the values were obtained:
[1] = tested on: men with premature ejaculation and/or erectile dysfunction
patients with PE = conditions: 6 months

**Q.** With `CNCCC(Oc1ccc(C(F)(F)F)cc1)c1ccccc1` (stereo not shown) [fluoxetine] as the compound, how does the latency to ejaculation ([1]; PE and PE+ED group taken together, p=0.007) read?
**A.** increased significantly

**Q.** What about the latency to ejaculation ([1]; PE+ED group, p=0.03) of the same compound?
**A.** increased significantly

**Q.** For `CN[C@H]1CC[C@@H](c2ccc(Cl)c(Cl)c2)c2ccccc21` [sertraline], which “ejaculation latency after treatment” value (patients with PE; PE group, 50 mg sertraline four hours before sex) is on record?
**A.** 247.2 s

**Q.** And the “ejaculation latency after treatment” value (patients with PE; PE+ED group (sildenafil-treated), 50 mg sertraline)?
**A.** 111.6 s
